From the supplement of paper PMC10307832

How the values were obtained:
Assay in all cases: relative viability (nuclei count vs DMSO), 5 days (fraction); higher = more cells survive
[1] = compound: C=CCn1c(=O)c2cnc(Nc3ccc(N4CCN(C)CC4)cc3)nc2n1-c1cccc(C(C)(C)O)n1 [Adavosertib] + CC(C)C[C@H](NC(=O)[C@H](Cc1ccccc1)NC(=O)c1cnccn1)B(O)O [Bortezomib] (partner 0.002 µM)
How it was run: (§1)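 Lung cancer cell lines, seeded in 1536-well plates, were treated the following day by pin tool with a single drug or with five library-drug doses (not always all listed) in √10 steps on top of a fixed anchor-drug dose. Cells were fixed and nuclei stained in one step after 5 days, and nuclei were counted. Relative viability is the nuclei count for treated wells divided by that for vehicle wells, reported as medians of duplicate plates.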

[2] = compound: C=CCn1c(=O)c2cnc(Nc3ccc(N4CCN(C)CC4)cc3)nc2n1-c1cccc(C(C)(C)O)n1 [Adavosertib] + CCNC(=O)c1noc(-c2cc(C(C)C)c(O)cc2O)c1-c1ccc(CN2CCOCC2)cc1 [Luminespib] (partner 0.01 µM)
How it was run: as §1

[3] = compound: COc1nc(N)nc2c1ncn2[C@@H]1O[C@H](CO)[C@@H](O)[C@@H]1O [Nelarabine] + C[C@]1(O)C[C@@H](c2nc(-c3ccc4ccc(-c5ccccc5)nc4c3)c3c(N)nccn32)C1 [Linsitinib] (partner 1 µM)
How it was run: as §1

[4] = compound: COc1nc(N)nc2c1ncn2[C@@H]1O[C@H](CO)[C@@H](O)[C@@H]1O [Nelarabine] + N=C(N)NC(=N)NCCc1ccccc1 [Phenformin] (partner 250 µM)
How it was run: as §1

For EMC-BAC-2, the relative viability ([1]; first compound 0.01 µM) was 0.987, the relative viability ([1]; first compound 0.03162 µM) was 0.989 and the relative viability ([1]; first compound 0.1 µM) was 1.06. It also gave a relative viability ([1]; first compound 0.3162 µM) of 1.04, a relative viability ([2]; first compound 0.01 µM) of 1.14 and a relative viability ([2]; first compound 0.03162 µM) of 1.25. The relative viability ([2]; first compound 0.1 µM) was 1.18, the relative viability ([2]; first compound 0.3162 µM) was 1.11 and the relative viability ([3]; first compound 0.01 µM) was 0.958. It also gave a relative viability ([3]; first compound 0.03162 µM) of 0.781, a relative viability ([3]; first compound 0.1 µM) of 0.83 and a relative viability ([3]; first compound 0.3162 µM) of 0.831. The relative viability ([3]; first compound 1 µM) was 0.859, the relative viability ([4]; first compound 0.01 µM) was 0.587 and the relative viability ([4]; first compound 0.03162 µM) was 0.463. The relative viability ([4]; first compound 0.1 µM) was 0.493, the relative viability ([4]; first compound 0.3162 µM) was 0.517 and the relative viability ([4]; first compound 1 µM) was 0.539.
